Data as given in article PMC6451126 (2019).

Assays:
[1] = system: KRAS (DNA, G4) AGGGCGGTGTGGGAAGAGGGAAGAGGGGGAGG; test: RLS intensity ratio; Job plot; details: 50 mM KCl; 20 mM Tris-HCl pH 7.4, 1 mM Na2EDTA, 5 µM porphyrin
[2] = system: AS1411 (DNA, G4) GGTGGTGGTGGTTGTGGTGGTGGTGG; test: RLS intensity ratio; details: 50 mM KCl; 20 mM Tris-HCl pH 7.0, 1 mM Na2EDTA, 5 µM porphyrin, 10 µM DNA
[3] = system: Hum24 (DNA, G4) TTAGGGTTAGGGTTAGGGTTAGGG; test: RLS intensity ratio; details: 50 mM KCl; 20 mM Tris-HCl pH 7.0, 1 mM Na2EDTA, 5 µM porphyrin, 10 µM DNA
[4] = system: CatG4 (DNA, G4) TGGGTAGGGCGGGTTGGG; test: RLS intensity ratio; details: 50 mM KCl; 20 mM Tris-HCl pH 7.0, 1 mM Na2EDTA, 5 µM porphyrin, 10 µM DNA
[5] = system: KRAS (DNA, G4) AGGGCGGTGTGGGAAGAGGGAAGAGGGGGAGG; test: RLS ratio I702/I652, absorption, fluorescence; Job plot; details: 50 mM KCl; 20 mM Tris-HCl pH 7.0, 1 mM Na2EDTA, 5 µM porphyrin
[6] = system: C-MYC (DNA, G4) TGAGGGTGGGGAGGGTGGGGAA; test: RLS intensity ratio; details: 50 mM KCl; 20 mM Tris-HCl pH 7.0, 1 mM Na2EDTA, 5 µM porphyrin, 10 µM DNA
[7] = system: Oxy28 (DNA, G4) GGGGTTTTGGGGTTTTGGGGTTTTGGGG; test: RLS intensity ratio; details: 50 mM KCl; 20 mM Tris-HCl pH 7.0, 1 mM Na2EDTA, 5 µM porphyrin, 10 µM DNA

Measured: binding

C[N+]1(CCO)CC[N+](C)(CCOc2ccc(-c3c4nc(c(-c5ccc(OCC[N+]6(C)CC[N+](C)(CCO)CC6)cc5)c5ccc([nH]5)c(-c5ccc(OCC[N+]6(C)CC[N+](C)(CCO)CC6)cc5)c5nc(c(-c6ccc(OCC[N+]7(C)CC[N+](C)(CCO)CC7)cc6)c6ccc3[nH]6)C=C5)C=C4)cc2)CC1 (stereo not shown)
yes: [1]

C[N+]1(CCOc2ccc(-c3c4nc(c(-c5ccc(OCC[N+]6(C)CCCCC6)cc5)c5ccc([nH]5)c(-c5ccc(OCC[N+]6(C)CCCCC6)cc5)c5nc(c(-c6ccc(OCC[N+]7(C)CCCCC7)cc6)c6ccc3[nH]6)C=C5)C=C4)cc2)CCCCC1
not listed: [1]
yes: all other assays above
